Measurements from ChEMBL document CHEMBL2040778, “The binding of C5-alkynyl and alkylfurano[2,3-d]pyrimidine glucopyranonucleosides to glycogen phosphorylase b: synthesis, biochemical and biological assessment” (Eur J Med Chem, 2012).

Experiments:
[1] = molecular target: Glycogen phosphorylase, muscle form, Oryctolagus cuniculus (UniProt P00489); assay: Inhibition of glycogen phosphorylase b
[2] = molecular target: T1, Glycogen phosphorylase, muscle form (Oryctolagus cuniculus, UniProt P00489); assay: Competitive inhibition of rabbit skeletal muscle glycogen phosphorylase b using Glc-1-P as substrate; design: species or system Muscle tissue
T1 sequence (P00489 whole entry): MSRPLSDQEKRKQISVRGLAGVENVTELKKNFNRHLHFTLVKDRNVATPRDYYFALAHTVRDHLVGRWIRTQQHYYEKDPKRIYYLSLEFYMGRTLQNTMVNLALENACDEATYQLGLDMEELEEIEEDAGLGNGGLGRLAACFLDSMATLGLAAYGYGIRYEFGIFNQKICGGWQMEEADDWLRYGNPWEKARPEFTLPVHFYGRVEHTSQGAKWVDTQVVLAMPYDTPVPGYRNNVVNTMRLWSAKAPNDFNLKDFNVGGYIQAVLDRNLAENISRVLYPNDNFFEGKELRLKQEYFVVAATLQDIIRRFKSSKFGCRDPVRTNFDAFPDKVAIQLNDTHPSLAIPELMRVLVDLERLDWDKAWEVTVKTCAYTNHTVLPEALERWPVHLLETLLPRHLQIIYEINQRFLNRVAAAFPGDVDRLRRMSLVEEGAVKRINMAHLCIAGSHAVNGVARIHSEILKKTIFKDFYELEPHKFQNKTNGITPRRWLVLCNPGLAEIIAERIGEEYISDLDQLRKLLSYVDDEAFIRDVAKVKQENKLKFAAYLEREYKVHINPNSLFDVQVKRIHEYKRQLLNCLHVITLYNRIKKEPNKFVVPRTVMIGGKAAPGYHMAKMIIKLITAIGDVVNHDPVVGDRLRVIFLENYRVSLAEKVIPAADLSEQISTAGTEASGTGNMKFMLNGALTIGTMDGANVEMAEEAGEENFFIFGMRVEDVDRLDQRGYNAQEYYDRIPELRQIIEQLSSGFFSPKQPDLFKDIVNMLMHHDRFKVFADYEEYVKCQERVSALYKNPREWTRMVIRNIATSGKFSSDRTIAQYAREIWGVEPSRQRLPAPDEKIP

[3] = molecular target: T2, Glycogen phosphorylase, muscle form (Homo sapiens, UniProt P11217); assay: Inhibition of glycogen phosphorylase b in human HepG2 cells after 3 hrs; format: cell-based
T2 sequence (P11217 whole entry): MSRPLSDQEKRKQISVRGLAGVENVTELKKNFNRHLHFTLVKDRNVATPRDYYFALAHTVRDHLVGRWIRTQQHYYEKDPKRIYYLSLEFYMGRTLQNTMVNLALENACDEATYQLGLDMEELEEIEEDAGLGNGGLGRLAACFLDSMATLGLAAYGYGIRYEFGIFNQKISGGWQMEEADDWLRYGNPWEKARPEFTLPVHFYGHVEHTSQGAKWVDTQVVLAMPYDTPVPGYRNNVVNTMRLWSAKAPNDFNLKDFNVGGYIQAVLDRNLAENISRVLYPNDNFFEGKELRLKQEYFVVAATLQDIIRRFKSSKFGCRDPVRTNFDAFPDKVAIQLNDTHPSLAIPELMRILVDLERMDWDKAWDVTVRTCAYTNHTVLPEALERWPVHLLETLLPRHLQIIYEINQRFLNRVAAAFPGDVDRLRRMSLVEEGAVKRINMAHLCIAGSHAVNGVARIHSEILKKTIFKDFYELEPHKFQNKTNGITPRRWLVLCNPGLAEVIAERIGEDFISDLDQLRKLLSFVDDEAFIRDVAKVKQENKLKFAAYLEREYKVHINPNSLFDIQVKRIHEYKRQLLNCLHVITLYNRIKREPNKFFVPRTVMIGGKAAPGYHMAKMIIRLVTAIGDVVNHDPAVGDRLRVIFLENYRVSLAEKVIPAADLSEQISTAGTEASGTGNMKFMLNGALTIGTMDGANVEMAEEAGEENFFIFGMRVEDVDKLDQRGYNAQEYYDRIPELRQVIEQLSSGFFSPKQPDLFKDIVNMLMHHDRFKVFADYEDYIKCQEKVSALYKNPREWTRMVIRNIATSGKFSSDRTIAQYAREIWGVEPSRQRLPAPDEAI

HepG2 [4] = assay: Cytotoxicity against human HepG2 cells up to 150 uM after 6 hrs by MTT assay; format: cell-based; conditions: hepg2, 6 h
HepG2 [5] = assay: Cytotoxicity against human HepG2 cells assessed as decrease in viability up to 500 uM after 6 hrs by MTT assay relative to control; format: cell-based; conditions: hepg2, 6 h

Structure (SMILES)	Ki [1] [µM]	Ki [2] [µM]	also measured
CCCC#Cc1cn([C@@H]2O[C@H](CO)[C@@H](O)[C@H](O)[C@H]2O)c(=O)[nH]c1=O	–	303	–
CCCCCC#Cc1cn([C@@H]2O[C@H](CO)[C@@H](O)[C@H](O)[C@H]2O)c(=O)[nH]c1=O	–	–	IC50 [2]: 6100 µM
C#Cc1cn([C@@H]2O[C@H](CO)[C@@H](O)[C@H](O)[C@H]2O)c(=O)[nH]c1=O	–	4.7	IC50 [3]: 291 µM; Activity (HepG2 [4]): Non-toxic; Activity (HepG2 [5]): 10%
CCCc1cc2cn([C@@H]3O[C@H](CO)[C@@H](O)[C@H](O)[C@H]3O)c(=O)nc2o1	–	32.4	–
CCCCCc1cc2cn([C@@H]3O[C@H](CO)[C@@H](O)[C@H](O)[C@H]3O)c(=O)nc2o1	–	33.4	–

Continued, in another order:

Ki [1] [µM]	Ki [2] [µM]	Structure (SMILES)	also measured
1.94	–	O=c1[nH]c(=O)n([C@@H]2O[C@H](CO)[C@@H](O)[C@H](O)[C@H]2O)cc1I	–
1.02	1.02	O=c1[nH]c(=O)n([C@@H]2O[C@H](CO)[C@@H](O)[C@H](O)[C@H]2O)cc1Cl	–
3.27	–	O=c1[nH]c(=O)n([C@@H]2O[C@H](CO)[C@@H](O)[C@H](O)[C@H]2O)cc1Br	–
